{"source": "patent US20130005650A1", "about": "(priority 2011, published 2013)", "key": {"[1]": {"settings": "cited from earlier work"}, "[2]": {"tested_on": "microorganisms", "settings": "generally; cited from earlier work"}, "[3]": {"molecular_target": "T1, Aβ42 fibrillogenesis (amyloid peptide) (Homo sapiens, UniProt P05067)", "T1 construct": "purchased Invitrogen (Camarillo, Calif.)", "T1 sequence (P05067 672-713 limits assumed)": "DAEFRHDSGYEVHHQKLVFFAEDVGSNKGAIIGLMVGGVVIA", "test": "Congo Red spectrophotometric assay of amyloid fibrillogenesis", "type": "biochemical", "excerpt": "In addition, the inhibition of the oligomerization of amyloid peptide (inhibition of amyloid fibrillogenesis) can be estimated by the method described by Klunk, et al. using Congo Red (Klunk, W. E., Jacob, R. F., Mason, R. P. (1999) “Quantifying amyloid β-peptide aggregation using the congo red-Aβ spectrophotometric assay” Anal. Biochem. 266:66-76).\nThe inhibition of the oligomerization of amyloid peptide was estimated by the method described by Klunk, et al. using Congo Red (Klunk, W. E., Jacob, R. F., Mason, R. P. (1999) “Quantifying amyloid β-peptide aggregation using the congo red-Aβ spectrophotometric assay” Anal. Biochem. 266, 66-76). Briefly, amyloid peptides were prepared in 40 μM in Tris-Acetate (40 mM:8 mM) buffer. Acriflavine HCl to be tested for inhibition of fibrillogenesis was dissolved in phosphate buffered saline, and then diluted 100 fold into Tris-Acetate buffer. Aliquots of 100 μl of amyloid peptide were incubated with acriflavine at room temperature for 5 days before measuring the absorbance. BSA was included in the buffer as a negative control. […] The absorbance of Congo Red at 541 nm was read using a Perkin-Elmer Victor3 1420 Multilabel Counter. The inhibition of oligomerization was calculated using the following formula: Inhibition=(Abs541 of sample-Abs541 of control)/(Abs541 of Amyloid peptide-Abs541 of BSA)."}, "[4]": {"tested_on": "PSI^+ induction in yeast cells", "test": "PSI^+ induction assay in yeast", "type": "cell-based", "settings": "FIG. 2; 24 h, 50 μM copper sulfate, 30° C."}, "[5]": {"settings": "human; cited from earlier work"}, "[6]": {"molecular_target": "T2, amyloid fibrils (Homo sapiens, UniProt P05067)", "T2 construct": "effective to reduce or reverse amyloid fibril formation (Aβ42 fibrillogenesis) in vitro", "T2 sequence (P05067 672-713 limits assumed)": "as above", "test": "Incubation of acriflavine with amyloid fibrils (fibril dissociation)", "type": "biochemical", "settings": "in vitro"}, "[7]": {"molecular_target": "yeast prion protein Sup-NM (Saccharomyces cerevisiae, UniProt P05453)", "sequence (P05453 1-254 limits assumed)": "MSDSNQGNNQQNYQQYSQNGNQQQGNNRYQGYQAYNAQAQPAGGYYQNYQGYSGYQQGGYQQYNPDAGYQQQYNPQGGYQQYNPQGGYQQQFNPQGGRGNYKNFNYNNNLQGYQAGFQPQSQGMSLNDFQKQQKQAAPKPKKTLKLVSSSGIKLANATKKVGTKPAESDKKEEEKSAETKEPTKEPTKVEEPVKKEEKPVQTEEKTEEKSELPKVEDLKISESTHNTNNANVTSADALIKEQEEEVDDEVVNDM", "type": "biochemical", "settings": "thioflavin T fluorescence, 25° C."}}}
{"substance": "Acriflavine neutral", "values": [{"measurement": "toxicity", "setting": "[1]; clinically used dosage range", "value": "low toxicity"}, {"measurement": "effect on hematopoietic system and liver", "setting": "[1]; repetitive administrations for a prolonged period", "value": "does not suppress the hematopoietic system, nor damage the liver"}, {"measurement": "concentration inhibiting the growth of microorganisms", "setting": "[2]", "value": "10^−4 to 10^−5 M"}]}
{"substance": "Acriflavine HCl", "values": [{"measurement": "inhibition of amyloid fibrillogenesis", "setting": "[3]; FIG. 1, Aβ42", "value": "concentration-dependent inhibition"}, {"measurement": "IC50 for inhibition of fibrillogenesis", "setting": "[3]; amyloid peptide 40 μM, room temperature, 5 days, Congo Red Abs 541 nm", "value": "approximately 1.7 μg/mL"}]}
{"substance": "acriflavine", "values": [{"measurement": "inhibition of PSI^+ induction in yeast cells", "setting": "[4]", "value": "concentration dependent inhibition"}, {"measurement": "crossing of the blood-brain barrier", "setting": "[5]", "value": "able to cross the blood-brain barrier"}, {"measurement": "amount of amyloid peptide monomer after incubation with amyloid fibrils", "setting": "[6]", "value": "increase in the amount of amyloid peptide monomer"}, {"measurement": "inhibition of amyloid formation of yeast prion protein Sup-NM", "setting": "[7]", "value": "inhibit in a dose-dependent manner"}]}
